Source: US20250257053A1, “PESTICIDALLY ACTIVE HETEROCYCLIC DERIVATIVES WITH SULFUR CONTAINING SUBSTITUENTS” (SYNGENTA CROP PROTECTION AG, priority 2021, published 2025)

Key:
Format in all cases: in vivo
[1] = test system: Spodoptera littoralis (Egyptian Cotton Leaf Worm); assay: Activity against Spodoptera littoralis (Egyptian cotton leaf worm), sprayed cotton leaf discs; conditions: foliar, 72 h, application rate 200 ppm, five L1 larvae, 3 days after infestation, in comparison to untreated samples, read-out: control (at least one of mortality, anti-feedant effect, growth inhibition)
Method: Example B7: Activity Against Spodoptera littoralis (Egyptian Cotton Leaf Worm)
Cotton leaf discs were placed onto agar in 24-well microtiter plates and sprayed with aqueous test solutions prepared from 10′000 ppm DMSO stock solutions. After drying the leaf discs were infested with five L1 larvae. The samples were assessed for mortality, anti-feeding effect, and growth inhibition in comparison to untreated samples 3 days after infestation. Control of Spodoptera littoralis by a test sample is given when at least one of the categories mortality, anti-feedant effect, and growth inhibition is higher than the untreated sample.

[2] = test system: Diabrotica Balteata (Corn Root Worm); assay: Activity against Diabrotica balteata (corn root worm), sprayed maize sprouts on agar; conditions: 96 h, application rate 200 ppm, L2 larvae, 4 days after infestation, in comparison to untreated samples, read-out: effect in at least one of the two categories (mortality or growth inhibition)
Method: Example B2: Activity Against Diabrotica Balteata (Corn Root Worm)
Maize sprouts placed onto an agar layer in 24-well microtiter plates were treated with aqueous test solutions prepared from 10′000 ppm DMSO stock solutions by spraying. After drying, the plates were infested with L2 larvae (6 to 10 per well). The samples were assessed for mortality and growth inhibition in comparison to untreated samples 4 days after infestation.

[3] = test system: Myzus persicae (Green Peach Aphid); assay: Activity against Myzus persicae (green peach aphid), systemic activity, pea seedling roots in test solution; conditions: 144 h, test rate 24 ppm, aphid population of mixed ages, 6 days after placing seedlings into test solutions
Method: Example B5: Activity Against Myzus persicae (Green Peach Aphid) Systemic Activity
Roots of pea seedlings infested with an aphid population of mixed ages were placed directly into aqueous test solutions prepared from 10′000 DMSO stock solutions. The samples were assessed for mortality 6 days after placing seedlings into test solutions.

[4] = test system: Plutella xylostella (Diamond Back Moth); assay: Activity against Plutella xylostella (diamond back moth), artificial diet in 24-well microtiter plates; conditions: 192 h, application rate 200 ppm, eggs, 8 days after infestation, in comparison to untreated samples, read-out: effect in at least one of the two categories (mortality or growth inhibition)
Method: Example B6: Activity Against Plutella xylostella (Diamond Back Moth)
24-well microtiter plates with artificial diet were treated with aqueous test solutions prepared from 10′000 ppm DMSO stock solutions by pipetting. After drying, Plutella eggs were pipetted through a plastic stencil onto a gel blotting paper and the plate was closed with it. The samples were assessed for mortality and growth inhibition in comparison to untreated samples 8 days after infestation. The following compounds gave an effect of at least 80% in at least one of the two categories (mortality or growth inhibition) at an application rate of 200 ppm: P2, P3, P4, P5, P7, P9, P10, P11, P13, P14, P15.

[5] = test system: Chilo suppressalis (Striped Rice Stemborer); assay: Activity against Chilo suppressalis (striped rice stemborer), artificial diet in 24-well microtiter plates; conditions: 144 h, application rate 200 ppm, L2 larvae, 6 days after infestation, in comparison to untreated samples, read-out: control (at least one of mortality, anti-feedant effect, growth inhibition)
Method: Example B1: Activity Against Chilo suppressalis (Striped Rice Stemborer)
24-well microtiter plates with artificial diet were treated with aqueous test solutions prepared from 10′000 ppm DMSO stock solutions by pipetting. After drying, the plates were infested with L2 larvae (6-8 per well). The samples were assessed for mortality, anti-feeding effect, and growth inhibition in comparison to untreated samples 6 days after infestation. Control of Chilo suppressalis by a test sample is given when at least one of the categories mortality, anti-feedant effect, and growth inhibition is higher than the untreated sample.

[6] = test system: Myzus persicae (Green Peach Aphid); assay: Activity against Myzus persicae (green peach aphid), feeding/contact activity, sunflower leaf discs; conditions: foliar, 144 h, application rate 200 ppm, aphid population of mixed ages, 6 days after infestation
Method: Example B4: Activity Against Myzus persicae (Green Peach Aphid) Feeding/Contact Activity
Sunflower leaf discs were placed onto agar in a 24-well microtiter plate and sprayed with aqueous test solutions prepared from 10′000 ppm DMSO stock solutions. After drying, the leaf discs were infested with an aphid population of mixed ages. The samples were assessed for mortality 6 days after infestation.

[7] = test system: Euschistus heros (Neotropical Brown Stink Bug); assay: Activity against Euschistus heros (neotropical brown stink bug), sprayed soybean leaves on agar; conditions: 120 h, application rate 200 ppm, N2 nymphs, 5 days after infestation, in comparison to untreated samples, read-out: effect in at least one of the two categories (mortality or growth inhibition)
Method: Example B3: Activity Against Euschistus heros (Neotropical Brown Stink Bug)
Soybean leaves on agar in 24-well microtiter plates were sprayed with aqueous test solutions prepared from 10′000 ppm DMSO stock solutions. After drying the leaves were infested with N2 nymphs. The samples were assessed for mortality and growth inhibition in comparison to untreated samples 5 days after infestation.

CCS(=O)(=O)c1cc(-c2ccc(F)cc2)cnc1-c1coc2cc(C(F)(F)F)ccc2c1=O [P16, 3-[3-ethylsulfonyl-5-(4-fluorophenyl)-2-pyridyl]-7-(trifluoromethyl)chromen-4-one]
≥ 80%: percent control (mortality, anti-feedant effect or growth inhibition) at 200 ppm [1]

CCS(=O)(=O)c1cccnc1-c1coc2cc(C(F)(F)F)ccc2c1=O [P2, 3-(3-ethylsulfonyl-2-pyridyl)-7-(trifluoromethyl)chromen-4-one]
≥ 80%: percent control (mortality, anti-feedant effect or growth inhibition) at 200 ppm [1] | percent control (mortality or growth inhibition) at 200 ppm [2] | mortality at 24 ppm [3] | effect (mortality or growth inhibition) at 200 ppm [4] | percent control (mortality, anti-feedant effect or growth inhibition) at 200 ppm [5] | mortality at 200 ppm [6] | percent control (mortality or growth inhibition) at 200 ppm [7]

CCS(=O)(=O)c1cc(Br)cnc1-c1c(C)oc2cc(C(F)(F)F)ccc2c1=O [P8, 3-(5-bromo-3-ethylsulfonyl-2-pyridyl)-2-methyl-7-(trifluoromethyl) chromen-4-one]
≥ 80%: percent control (mortality, anti-feedant effect or growth inhibition) at 200 ppm [1] | percent control (mortality, anti-feedant effect or growth inhibition) at 200 ppm [5]

CCS(=O)(=O)c1cc(Br)cnc1-c1coc2cc(C(F)(F)F)ccc2c1=O [P9, 3-(5-bromo-3-ethylsulfonyl-2-pyridyl)-7-(trifluoromethyl)-chromen-4-one]
≥ 80%: percent control (mortality, anti-feedant effect or growth inhibition) at 200 ppm [1] | percent control (mortality or growth inhibition) at 200 ppm [2] | effect (mortality or growth inhibition) at 200 ppm [4] | percent control (mortality, anti-feedant effect or growth inhibition) at 200 ppm [5]

CCS(=O)(=O)c1cc(C(C)(C)C#N)cnc1-c1coc2cc(C(F)(F)F)ccc2c1=O [P5, 2-[5-ethylsulfonyl-6-[4-oxo-7-(trifluoromethyl)chromen-3-yl]-3-pyridyl]-2-methyl-propane-nitrile]
≥ 80%: percent control (mortality, anti-feedant effect or growth inhibition) at 200 ppm [1] | percent control (mortality or growth inhibition) at 200 ppm [2] | mortality at 24 ppm [3] | effect (mortality or growth inhibition) at 200 ppm [4] | percent control (mortality, anti-feedant effect or growth inhibition) at 200 ppm [5] | mortality at 200 ppm [6] | percent control (mortality or growth inhibition) at 200 ppm [7]

CCS(=O)(=O)c1cc(C2(C#N)CC2)cnc1-c1coc2cc(OC(F)(F)F)ccc2c1=O [P15, 1-[5-ethylsulfonyl-6-[4-oxo-7-(trifluoromethoxy)chromen-3-yl]-3-pyridyl]-cyclopropane-carbonitrile]
≥ 80%: percent control (mortality, anti-feedant effect or growth inhibition) at 200 ppm [1] | percent control (mortality or growth inhibition) at 200 ppm [2] | effect (mortality or growth inhibition) at 200 ppm [4] | percent control (mortality, anti-feedant effect or growth inhibition) at 200 ppm [5] | mortality at 200 ppm [6] | percent control (mortality or growth inhibition) at 200 ppm [7]

CCS(=O)(=O)c1cc(C2CC2)cnc1-c1coc2cc(C(F)(F)F)ccc2c1=O [P11, 3-(5-cyclopropyl-3-ethylsulfonyl-2-pyridyl)-7-(trifluoromethyl) chromen-4-one]
≥ 80%: percent control (mortality, anti-feedant effect or growth inhibition) at 200 ppm [1] | percent control (mortality or growth inhibition) at 200 ppm [2] | mortality at 24 ppm [3] | effect (mortality or growth inhibition) at 200 ppm [4] | percent control (mortality, anti-feedant effect or growth inhibition) at 200 ppm [5] | mortality at 200 ppm [6] | percent control (mortality or growth inhibition) at 200 ppm [7]

CCS(=O)(=O)c1ccc(C2CC2)nc1-c1coc2cc(C(F)(F)F)ccc2c1=O [P10, 3-(6-cyclopropyl-3-ethylsulfonyl-2-pyridyl)-7-(trifluoromethyl) chromen-4-one]
≥ 80%: percent control (mortality, anti-feedant effect or growth inhibition) at 200 ppm [1] | percent control (mortality or growth inhibition) at 200 ppm [2] | effect (mortality or growth inhibition) at 200 ppm [4] | percent control (mortality, anti-feedant effect or growth inhibition) at 200 ppm [5] | mortality at 200 ppm [6]

CCS(=O)(=O)c1cc(C2(C#N)CC2)cnc1-c1c(C)oc2cc(C(F)(F)F)ccc2c1=O [P7, 1-[5-ethylsulfonyl-6-[2-methyl-4-oxo-7-(trifluoromethyl)chromen-3-yl]-3-pyridyl] cyclopropane-carbonitrile]
≥ 80%: percent control (mortality, anti-feedant effect or growth inhibition) at 200 ppm [1] | percent control (mortality or growth inhibition) at 200 ppm [2] | mortality at 24 ppm [3] | effect (mortality or growth inhibition) at 200 ppm [4] | percent control (mortality, anti-feedant effect or growth inhibition) at 200 ppm [5] | mortality at 200 ppm [6] | percent control (mortality or growth inhibition) at 200 ppm [7]

CCSc1cc(C2(C#N)CC2)cnc1-c1coc2cc(C(F)(F)F)ccc2c1=O [P3, 1-[5-ethylsulfanyl-6-[4-oxo-7-(trifluoromethyl)chromen-3-yl]-3-pyridyl]cyclopropane-carbonitrile]
≥ 80%: percent control (mortality, anti-feedant effect or growth inhibition) at 200 ppm [1] | percent control (mortality or growth inhibition) at 200 ppm [2] | effect (mortality or growth inhibition) at 200 ppm [4] | mortality at 200 ppm [6] | percent control (mortality or growth inhibition) at 200 ppm [7]

CCS(=O)(=O)c1cc(C2(C#N)CC2)cnc1-c1cn(C)c2cc(C(F)(F)F)ccc2c1=O [P14, 1-[5-ethylsulfonyl-6-[1-methyl-4-oxo-7-(trifluoromethyl)-3-quinolyl]-3-pyridyl]-cyclo-propanecarbonitrile]
≥ 80%: percent control (mortality, anti-feedant effect or growth inhibition) at 200 ppm [1] | percent control (mortality or growth inhibition) at 200 ppm [2] | mortality at 24 ppm [3] | effect (mortality or growth inhibition) at 200 ppm [4] | percent control (mortality, anti-feedant effect or growth inhibition) at 200 ppm [5] | mortality at 200 ppm [6] | percent control (mortality or growth inhibition) at 200 ppm [7]

CCS(=O)(=O)c1cc(C2(C#N)CC2)cnc1-c1coc2cc(OC(F)F)ccc2c1=O [P13, 1-[6-[7-(difluoromethoxy)-4-oxo-chromen-3-yl]-5-ethylsulfonyl-3-pyridyl]-cyclo-propanecarbonitrile]
≥ 80%: percent control (mortality, anti-feedant effect or growth inhibition) at 200 ppm [1] | percent control (mortality or growth inhibition) at 200 ppm [2] | mortality at 24 ppm [3] | effect (mortality or growth inhibition) at 200 ppm [4] | percent control (mortality, anti-feedant effect or growth inhibition) at 200 ppm [5] | mortality at 200 ppm [6] | percent control (mortality or growth inhibition) at 200 ppm [7]

CCS(=O)(=O)c1cc(C2(C#N)CC2)cnc1-c1coc2cc(C(F)(F)F)ccc2c1=O [P4, 1-[5-ethylsulfonyl-6-[4-oxo-7-(trifluoromethyl)chromen-3-yl]-3-pyridyl]cyclopropane-carbonitrile]
≥ 80%: percent control (mortality, anti-feedant effect or growth inhibition) at 200 ppm [1] | percent control (mortality or growth inhibition) at 200 ppm [2] | mortality at 24 ppm [3] | effect (mortality or growth inhibition) at 200 ppm [4] | percent control (mortality, anti-feedant effect or growth inhibition) at 200 ppm [5] | mortality at 200 ppm [6] | percent control (mortality or growth inhibition) at 200 ppm [7]
